Measurements as given in ChEMBL document CHEMBL1811859, “Second-generation sulfonamide inhibitors of D-glutamic acid-adding enzyme: activity optimisation with conformationally rigid analogues of D-glutamic acid” (Eur J Med Chem, 2011).
In brackets after ≈: the same amount, converted by molar mass.

Columns and labels:
[1] = test system: Streptococcus pneumoniae; test: Antimicrobial activity against Streptococcus pneumoniae D39 by broth dilution method; assay type: functional
[2] = test system: Streptococcus pneumoniae; test: Antimicrobial activity against Streptococcus pneumoniae ATCC 33400 by broth dilution method; assay type: functional
[3] = test system: Streptococcus pneumoniae; test: Antimicrobial activity against Streptococcus pneumoniae ATCC 49619 by broth dilution method; assay type: functional
[4] = test system: Enterococcus hirae; test: Antimicrobial activity against Enterococcus hirae ATCC 9790 by broth dilution method; assay type: functional
[5] = test system: Enterococcus faecium; test: Antimicrobial activity against Enterococcus faecium ATCC 19434 by broth dilution method; assay type: functional
[6] = test system: Enterococcus faecalis; test: Antimicrobial activity against Enterococcus faecalis ATCC 29212 by broth dilution method; assay type: functional
[7] = test system: Enterococcus faecalis; test: Antimicrobial activity against Enterococcus faecalis ATCC 19433 by broth dilution method; assay type: functional
[8] = test system: Bacillus subtilis; test: Antimicrobial activity against Bacillus subtilis ATCC 6633 by broth dilution method; assay type: functional
[9] = test system: Listeria monocytogenes; test: Antimicrobial activity against Listeria monocytogenes ATCC 14780 by broth dilution method; assay type: functional
[10] = test system: Listeria innocua; test: Antimicrobial activity against Listeria innocua ATCC 33090 by broth dilution method; assay type: functional
[11] = test system: Micrococcus luteus; test: Antimicrobial activity against Micrococcus luteus ATCC 9314 by broth dilution method; assay type: functional
[12] = test system: Klebsiella pneumoniae; test: Antimicrobial activity against Klebsiella pneumoniae ATCC 13883 by broth dilution method; assay type: functional
[13] = test system: Pseudomonas aeruginosa; test: Antimicrobial activity against Pseudomonas aeruginosa ATCC 27853 by broth dilution method; assay type: functional
[14] = test system: Citrobacter freundii; test: Antimicrobial activity against Citrobacter freundii ATCC 8090 by broth dilution method; assay type: functional
[15] = test system: Proteus mirabilis; test: Antimicrobial activity against Proteus mirabilis ATCC 29936 by broth dilution method; assay type: functional
[16] = test system: Escherichia coli; test: Antimicrobial activity against Escherichia coli ATCC 8739 by broth dilution method; assay type: functional
[17] = test system: Escherichia coli; test: Inhibition of Escherichia coli MurD ligase assessed as residual activity at 1 mM after 30 mins
[18] = Inhibition of Escherichia coli MurD ligase assessed as addition of D-[3H]glu to UDP-N-acetyl-muramoyl-L-alanine after 30 mins
[19] = test system: Staphylococcus epidermidis; test: Antimicrobial activity against Staphylococcus epidermidis ATCC 12228 by broth dilution method; assay type: functional
[20] = test system: Staphylococcus aureus; test: Antimicrobial activity against Staphylococcus aureus ATCC 25923 by broth dilution method; assay type: functional
[21] = test system: Staphylococcus aureus; test: Antimicrobial activity against methicillin-resistant Staphylococcus aureus PL1 by broth dilution method; assay type: functional
[22] = test system: Staphylococcus aureus; test: Antimicrobial activity against methicillin-resistant Staphylococcus aureus ATCC 43300 by broth dilution method; assay type: functional

Compound	MIC [1] [µg/mL]	MIC [2] [µg/mL]	MIC [3] [µg/mL]	MIC [4] [µg/mL]	MIC [5] [µg/mL]	MIC [6] [µg/mL]	MIC [7] [µg/mL]	MIC [8] [µg/mL]	MIC [9] [µg/mL]	MIC [10] [µg/mL]	MIC [11] [µg/mL]	MIC [12] [µg/mL]	MIC [13] [µg/mL]	MIC [14] [µg/mL]	MIC [15] [µg/mL]	MIC [16] [µg/mL]	Activity [17] [%]	MIC [19] [µg/mL]	MIC [20] [µg/mL]	MIC [21] [µg/mL]	other results
N#Cc1ccc(COc2ccc3cc(S(=O)(=O)Nc4ccc(C(=O)O)cc4C(=O)O)ccc3c2)c(F)c1	> 512	> 512	> 512	> 512	> 512	> 512	> 512	> 512	> 512	> 512	> 512	> 512	> 512	> 512	> 512	> 512	0.79	> 512	> 512	> 512	IC50 [18]: 8.4 µM; Ki [18]: 5.8 µM; MIC [22]: > 512 µg/mL
CCCCOc1ccc2cc(S(=O)(=O)N[C@H](CCC(=O)O)C(=O)O)ccc2c1																					IC50 [18]: 280 µM; Ki [18]: 192 µM
N#Cc1ccc(COc2ccc3cc(S(=O)(=O)N[C@@H]4CCCC[C@H]4C(=O)O)ccc3c2)c(F)c1	> 512	> 512	> 512	> 512	> 512	> 512	> 512	> 512	> 512	> 512	> 512	> 512	> 512	> 512	> 512	> 512	88	> 512	> 512	> 512	MIC [22]: > 512 µg/mL
CCCCOc1ccc2cc(S(=O)(=O)N[C@H]3CCCC[C@H]3C(=O)O)ccc2c1	64 (≈ 158 µM)	64 (≈ 158 µM)	64 (≈ 158 µM)	64 (≈ 158 µM)	256 (≈ 631 µM)	256 (≈ 631 µM)	512 (≈ 1260 µM)	64 (≈ 158 µM)	32 (≈ 78.9 µM)	32 (≈ 78.9 µM)	> 512	> 512	> 512	> 512	> 512	> 512	93	256 (≈ 631 µM)	256 (≈ 631 µM)	128 (≈ 316 µM)	MIC [22]: 128 µg/mL (≈ 316 µM)
N#Cc1ccc(COc2ccc3cc(S(=O)(=O)Nc4cc(C(=O)O)cc(C(=O)O)c4)ccc3c2)c(F)c1	> 512	> 512	> 512	> 512	> 512	> 512	> 512	> 512	> 512	> 512	> 512	> 512	> 512	> 512	> 512	> 512	2	> 512	> 512	> 512	IC50 [18]: 50 µM; Ki [18]: 34 µM; MIC [22]: > 512 µg/mL
CCCCOc1ccc2cc(S(=O)(=O)NC3CCC(C(=O)O)CC3C(=O)O)ccc2c1 (racemic)	64 (≈ 142 µM)	64 (≈ 142 µM)	64 (≈ 142 µM)	32 (≈ 71.2 µM)	128 (≈ 285 µM)	256 (≈ 569 µM)	128 (≈ 285 µM)	64 (≈ 142 µM)	32 (≈ 71.2 µM)	32 (≈ 71.2 µM)	> 512	> 512	> 512	> 512	> 512	> 512	89	128 (≈ 285 µM)	128 (≈ 285 µM)	32 (≈ 71.2 µM)	MIC [22]: 128 µg/mL (≈ 285 µM)
CCCCOc1ccc2cc(S(=O)(=O)N[C@@H]3CCCC[C@H]3C(=O)O)ccc2c1	64 (≈ 158 µM)	64 (≈ 158 µM)	64 (≈ 158 µM)	64 (≈ 158 µM)	256 (≈ 631 µM)	256 (≈ 631 µM)	512 (≈ 1260 µM)	64 (≈ 158 µM)	32 (≈ 78.9 µM)	32 (≈ 78.9 µM)	> 512	> 512	> 512	> 512	> 512	> 512	100	256 (≈ 631 µM)	256 (≈ 631 µM)	256 (≈ 631 µM)	MIC [22]: 256 µg/mL (≈ 631 µM)
N#Cc1ccc(COc2ccc3cc(S(=O)(=O)Nc4cc(C(=O)O)ccc4C(=O)O)ccc3c2)c(F)c1	> 512	> 512	> 512	> 512	> 512	> 512	> 512	> 512	> 512	> 512	> 512	> 512	> 512	> 512	> 512	> 512	2	> 512	> 512	> 512	IC50 [18]: 38 µM; Ki [18]: 26 µM; MIC [22]: > 512 µg/mL
N#Cc1ccc(COc2ccc3cc(S(=O)(=O)NC4CCC(C(=O)O)CC4C(=O)O)ccc3c2)c(F)c1 (racemic)	> 512	> 512	> 512	> 512	> 512	> 512	> 512	> 512	> 512	> 512	> 512	> 512	> 512	> 512	> 512	> 512	14	> 512	> 512	> 512	MIC [22]: > 512 µg/mL
N#Cc1ccc(COc2ccc3cc(S(=O)(=O)N[C@H]4CCCC[C@H]4C(=O)O)ccc3c2)c(F)c1	> 512	> 512	> 512	> 512	256 (≈ 531 µM)	> 512	> 512	> 512	> 512	> 512	> 512	> 512	> 512	> 512	> 512	> 512	45	256 (≈ 531 µM)	256 (≈ 531 µM)	256 (≈ 531 µM)	MIC [22]: 256 µg/mL (≈ 531 µM)
N#Cc1ccc(COc2ccc3cc(S(=O)(=O)N[C@H](CCC(=O)O)C(=O)O)ccc3c2)c(F)c1																					Ki [18]: 58 µM
